Reference: patent publication US6407288B1, “Naphthylsalicylanilides as antimicrobial and antiinflammatory agents” (The Research Foundation of State University of New York, priority 2000, dated 2002)
In brackets after ≈: the same amount, converted by molar mass.

Key:
[1] = test system: S. sanguis; test: MIC microdilution, gram positive; format: cell-based, Streptococcus sanguis; conditions: Streptococcus; Table 1, Gram Positive
Summary of the method: (§1)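 Anaerobic strains required supplemented half-strength BHI and incubation in 5% CO2, 10% H2, balance N2; aerobic strains used full-strength BHI. Inoculum approx. 1×10^8 CFU/mL; compounds from DMSO, 50 to 0.05 μg/assay; visual MIC.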

[2] = test system: M. luteus; test: MIC microdilution, gram positive; format: cell-based, Micrococcus luteus; conditions: Micrococcus luteus; Table 2, Gram Positive
Protocol: The MIC's for the compounds were determined by a modified microdilution tube dilution method described in “Methods for Dilution Antimicrobial Susceptibility Tests for Bacteria that Grow Aerobically” (National Committee for Clinical Laboratory Standards Approved Standards, 1997, NCCLS document M7-A4). In general the modifications were made because of the unique growth requirements for the fastidious oral organisms and for those bacteria that require anaerobic conditions. Reference is also made to “Methods for Antimicrobial Susceptibility of Anaerobic Bacteria” (National Committee for Clinical Laboratory Standards Approved Standards, 1997, NCCLS document M11-A4). Briefly, the methods were as follows. Cultures were grown for 18-24hrs (aerobic bacteria) or 48-72 hrs (anaerobic bacteria) in the appropriate medium. For aerobic bacteria full strength brain heart infusion medium (BHI, Difco) was used. For anaerobic bacteria, half strength BHI (18.5 g/L) was supplemented by adding yeast extract (10 g/L), hemin (0.29 mL of a stock solution containing 0.1 g/200 mL dH2O) and menadione (15 mL of a stock solution containing 0.15 mL in 30 mL 95% EtOH) was used. Initial cultures were diluted to approximately 1×10^8 CFU/mL for use as an inoculum. Each assay received 10 μL of the inoculum. The drugs were prepared from a stock solution contained in dimethyl sulfoxide (DMSO) and diluted into the culture medium. Final concentrations of the drugs ranged from 50 to 0.05 μg/assay. The tests were run in duplicate and were incubated appropriately with regard to oxygen requirements for 24 to 48 hrs as required. Anaerobic incubation was an atmosphere of 5% CO2, 10% H2, with the balance N2. The lowest concentration of an antimicrobial agent at which no visible growth is noted was referred to as the MIC.

[3] = test system: B. fragilis; test: MIC microdilution, gram negative; format: cell-based, Bacteroides fraglis; conditions: for MIC: Bacteroides fragilis, Table 3, Gram Negative; for MIC B. fragilis: Table 3 printed a second time, Gram Negative
Protocol: The MIC's for the compounds were determined by a modified microdilution tube dilution method described in “Methods for Dilution Antimicrobial Susceptibility Tests for Bacteria that Grow Aerobically” (National Committee for Clinical Laboratory Standards Approved Standards, 1997, NCCLS document M7-A4). In general the modifications were made because of the unique growth requirements for the fastidious oral organisms and for those bacteria that require anaerobic conditions. Reference is also made to “Methods for Antimicrobial Susceptibility of Anaerobic Bacteria” (National Committee for Clinical Laboratory Standards Approved Standards, 1997, NCCLS document M11-A4). Briefly, the methods were as follows. Cultures were grown for 18-24hrs (aerobic bacteria) or 48-72 hrs (anaerobic bacteria) in the appropriate medium. For aerobic bacteria full strength brain heart infusion medium (BHI, Difco) was used. For anaerobic bacteria, half strength BHI (18.5 g/L) was supplemented by adding yeast extract (10 g/L), hemin (0.29 mL of a stock solution containing 0.1 g/200 mL dH2O) and menadione (15 mL of a stock solution containing 0.15 mL in 30 mL 95% EtOH) was used. Initial cultures were diluted to approximately 1×10^8 CFU/mL for use as an inoculum. Each assay received 10 μL of the inoculum. The drugs were prepared from a stock solution contained in dimethyl sulfoxide (DMSO) and diluted into the culture medium. Final concentrations of the drugs ranged from 50 to 0.05 μg/assay. The tests were run in duplicate and were incubated appropriately with regard to oxygen requirements for 24 to 48 hrs as required. Anaerobic incubation was an atmosphere of 5% CO2, 10% H2, with the balance N2. The lowest concentration of an antimicrobial agent at which no visible growth is noted was referred to as the MIC. […] The method used was the same as described in Example 1.

[4] = test system: S. aureus; test: MIC microdilution, gram positive; format: cell-based, Staphlococcus aureus; conditions: for MIC: Staphylococcus aureus
Summary of the method: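 Broth microdilution (modified NCCLS M7-A4): BHI for aerobes, supplemented half-strength BHI under 5% CO2/10% H2/N2 for anaerobes; 10 μL of ~1×10^8 CFU/mL inoculum; drugs 50 to 0.05 μg/assay from DMSO stock. Duplicates incubated 24–48 h; MIC = lowest concentration without visible growth. Staphylococcus R: coagulase-negative clinical isolate 00-045-1209.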

[5] = test system: A. viscosus; test: MIC microdilution, gram positive; format: cell-based, Actinomyces viscosus; conditions: Actinomyces viscosus; Table 2, Gram Positive
Summary of the method: as §1

[6] = test system: S. species R; test: Staphylococcus MIC; format: cell-based, staphylococcus species R; conditions: for MIC: Staphylococcus, second Table 5 (Example 5), strain 00-045-1209
Protocol: (§2) The MIC's for the compounds were determined by a modified microdilution tube dilution method described in “Methods for Dilution Antimicrobial Susceptibility Tests for Bacteria that Grow Aerobically” (National Committee for Clinical Laboratory Standards Approved Standards, 1997, NCCLS document M7-A4). In general the modifications were made because of the unique growth requirements for the fastidious oral organisms and for those bacteria that require anaerobic conditions. Reference is also made to “Methods for Antimicrobial Susceptibility of Anaerobic Bacteria” (National Committee for Clinical Laboratory Standards Approved Standards, 1997, NCCLS document M11-A4).
(§3) Briefly, the methods were as follows. Cultures were grown for 18-24hrs (aerobic bacteria) or 48-72 hrs (anaerobic bacteria) in the appropriate medium. For aerobic bacteria full strength brain heart infusion medium (BHI, Difco) was used. For anaerobic bacteria, half strength BHI (18.5 g/L) was supplemented by adding yeast extract (10 g/L), hemin (0.29 mL of a stock solution containing 0.1 g/200 mL dH2O) and menadione (15 mL of a stock solution containing 0.15 mL in 30 mL 95% EtOH) was used. Initial cultures were diluted to approximately 1×10^8 CFU/mL for use as an inoculum. Each assay received 10 μL of the inoculum. The drugs were prepared from a stock solution contained in dimethyl sulfoxide (DMSO) and diluted into the culture medium. Final concentrations of the drugs ranged from 50 to 0.05 μg/assay. The tests were run in duplicate and were incubated appropriately with regard to oxygen requirements for 24 to 48 hrs as required. Anaerobic incubation was an atmosphere of 5% CO2, 10% H2, with the balance N2. The lowest concentration of an antimicrobial agent at which no visible growth is noted was referred to as the MIC.
This embodiment describes the sensitivity of various staphylococcus strains to the compounds of the present invention. The staphylococcus species R is a strain 00-045-1209 from the Children's Hospital in Buffalo. It was isolated from the peritoneal cavity (fluid culture) of an individual. It was coagulase negative. The sensitivity of this strain was tested agaisnt several known antibiotics.

[7] = test system: S. aureus R2; test: Staphylococcus MIC; format: cell-based; conditions: second Table 5 (Example 5), strain 00-42-1066
Protocol: as §2, §3
The S.aureus R2 species is a strain 00-42-1066 from the Children's Hospital in Buffalo. It was isolated from a wound in an individual. It was […]. The sensitivity of this strain was tested agaisnt several known antibiotics.

[8] = test system: Str. pn; test: Mean Streptococcus MIC; format: cell-based; conditions: Streptococcus; Table 5, mean
Summary of the method: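 Modified NCCLS broth microdilution in duplicate: 10 μL inoculum from cultures diluted to about 1×10^8 CFU/mL, drug 50 to 0.05 μg/assay diluted from DMSO stock. Full-strength BHI for aerobes, supplemented half-strength BHI under 5% CO2/10% H2/N2 for anaerobes, 24–48 h; MIC as lowest concentration without visible growth.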

MIC [1] [µg/mL]	MIC [2] [µg/mL]	MIC [3] [µg/mL]	MIC B. fragilis [3]	MIC ([4]; Table 2, Gram Positive) [µg/mL]	MIC [5] [µg/mL]	MIC [6] [µg/mL]	MIC [7] [µg/mL]	MIC [8] [µg/mL]	MIC ([4]; second Table 5 (Example 5)) [µg/mL]	SMILES	MIC S. aureus ([4]; second Table 5 (Example 5))	sensitivity of staphylococcus species R to the compounds ([6]; statement in text referring to Table 5)
> 50	3.1 (≈ 7.41 µM)	50 (≈ 119 µM)	50 micrograms/ml	> 50	> 50	> 50	> 50	0.58 (≈ 1.39 µM)		N#Cc1cccc(NC(=O)c2cc(C(=O)c3ccc(-c4ccccc4)cc3)ccc2O)c1 [BPAmC, reference compound]	NE (NE indicates that the drug was not effective at a concentration >50 micrograms/ml)	
> 50	3.1 (≈ 6.72 µM)	50 (≈ 108 µM)	50 micrograms/ml	> 50	> 50	> 50	> 50	0.84 (≈ 1.82 µM)		O=C(c1ccc(-c2ccccc2)cc1)c1ccc(O)c(C(=O)Nc2cccc(C(F)(F)F)c2)c1 [BPAmF, reference compound]	NE (NE indicates that the drug was not effective at a concentration >50 micrograms/ml)	
0.8 (≈ 1.84 µM)	0.8 (≈ 1.84 µM)	3.1 (≈ 7.12 µM)	3.1 micrograms/ml		< 0.1	1.6 (≈ 3.67 µM)	1.6 (≈ 3.67 µM)	0.45 (≈ 1.03 µM)	3.1 (≈ 7.12 µM)	O=C(Nc1cccc(C(F)(F)F)c1)c1cc(C(=O)c2cccc3ccccc23)ccc1O [NA1mF]		highest effect

SMILES	MIC [1] [µg/mL]	MIC [2] [µg/mL]	MIC [3] [µg/mL]	MIC B. fragilis [3]	MIC ([4]; Table 2, Gram Positive) [µg/mL]	MIC [5] [µg/mL]	MIC [6] [µg/mL]	MIC [7] [µg/mL]	MIC [8] [µg/mL]	MIC ([4]; second Table 5 (Example 5)) [µg/mL]	MIC S. aureus ([4]; second Table 5 (Example 5))	sensitivity of staphylococcus species R to the compounds ([6]; statement in text referring to Table 5)
CCCCc1ccc(C(=O)c2ccc(O)c(C(=O)Nc3cccc(C(F)(F)F)c3)c2)cc1 [BBAmF, reference compound]	> 50	3.1 (≈ 7.02 µM)	> 50	NE (NE indicates that the drug was not effective at a concentration >50 micrograms/ml)	> 50	> 50	> 50	> 50	0.45 (≈ 1.02 µM)		NE (NE indicates that the drug was not effective at a concentration >50 micrograms/ml)	
N#Cc1cccc(NC(=O)c2cc(C(=O)c3cccc4ccccc34)ccc2O)c1 [NA1mC]	6.3 (≈ 16.1 µM)	3.1 (≈ 7.9 µM)	> 50	NE (NE indicates that the drug was not effective at a concentration >50 micrograms/ml)		3.2 (≈ 8.15 µM)	25 (≈ 63.7 µM)	6.3 (≈ 16.1 µM)	1.1 (≈ 2.8 µM)	12.5 (≈ 31.9 µM)		
